Measurements: patent USRE38333E1, “Antiviral phosphonomethoxy nucleotide analogs having increased oral bioavailability” (Gilead Sciences, Inc., priority 1996, dated 2003)
Like-named read-outs stand apart in the source and are kept apart here.

Assays:
[1] = Enzymatic stability in dog liver homogenate (S9); assay type: in vitro ADME; conditions: 37° C., 20 μg/mL
Protocol: Dog liver was obtained fresh from Pharmakon USA (Waverly, Pa.). Liver homogenate was prepared following a standard protocol. Dog liver was rinsed three times with ice-code 50 mM sodium/potassium phosphate buffer and homogenized with a Tekmar Tissumizer homogenizer (VWR 33995-060). The homogenate was centrifuged at 9000 g (11,000 rpm for Eppendorf Centrifuge 5402; Brinkman Instruments, Westbury, N.Y.) at 4° C. for 20 minutes. The supernatant was designated at the S9 fraction. The concentration of protein in the S9 fraction was determined using a Bio-Rad Protein Assay Kit II, with bovine serum albumin as standard. Esterase activity was determined using o-nitrophenyl butyreate as substrate and activity was calculated based on the increase in absorbance at 420 nm after a 1 min incubation. The homogenates were stored as 1.0 mL aliquots at −70° C.
(§1) One blank (drug free) incubation was performed for each biological fluid. All biological fluid tubes (open) were pre-incubated without PMPA prodrugs in a shaker bath at 37° C. and 100 oscillation/min for 5 minutes. PMPA prodrugs was added to the test incubations (final concentration: 20 μg/mL, mixed and maintained at 37° C. and 100 oscillations/min. Samples (50 μL) were withdrawn at 0, 30, and 60 minutes and the reaction was quenched with 100 μL of 0.1% trifluoroacetic acid (TFA) in acetonitrile. Quenched samples were centrifuged for 5 minutes at 14,000 rpm in an Eppendorf Centrifuge 5402, and the supernatant was used for HPLC analysis.
(§2) For each incubation, the observed rate constant for degradation was calculated by plotting the log of the peak area of PMPA prodrugs versus time of incubation (min). The slope was the observed rate constant (kobs). The half life was calculated according to the following equation: [formula]
(§3) If the observed rate constant for degradation was less than 0.01 min^−1, then t½ was expressed as stable.

[2] = assay type: in vitro ADME; conditions: 37° C., 20 μg/mL
Protocol: (§4) Enzymatic stability studies involving plasma and intestinal homogenate were performed with 90% biological fluids.
as §1, §2, §3

[3] = assay type: in vitro ADME; conditions: dog intestinal homogenate, 37° C., 20 μg/mL
Protocol: Dog intestinal segments (jejunum/ileum) were obtained fresh from Pharmakon USA (Waverly, Pa.) and intestinal homogenate was prepared as described for liver. The intestinal homogenates were stored as 1.0 mL aliquots at −70° C.
as §4, §1, §2, §3

[4] = Partition coefficient (Log PC); assay type: physicochemical
[5] = Enzymatic stability in human intestinal homogenate (S9); assay type: in vitro ADME; conditions: human intestinal homogenate (values in parentheses), 37° C., 20 μg/mL
Protocol: Human intestinal homogenate (S9) was obtained from Keystone Skin Bank (Exton, Pa.) at concentration of 20 mg protein/mL.
as §4, §1, §2, §3

[6] = Oral bioavailability of PMPA and PMPA carbonates in beagle dogs; assay type: in vivo; conditions: for % of PMPA IV (1 mg/kg) AUC: PMPA: 6.2-10 mg eq of PMPA/kg, PMPA in plasma; for % of PMPA IV (1 mg/kg) AUC: Prodrug: intact prodrug in plasma; for % of PMPA IV (1 mg/kg) AUC: Monoester: monoester in plasma; for % of PMPA IV (1 mg/kg) AUC: other: other species in plasma
Protocol: PMPA (9-[(R)-2-(phosphonomethoxy)propyl]adenine) and PMPA carbonates were examined to determine the effect of dose on the pharmacokinetics of PMPA in beagle dogs, in particular the bioavailability of PMPA following oral administration to beagle dogs.
The intravenous formulations used as standards were isotonic aqueous solutions containing 50 mg/mL PMPA. Compound was added to 10 mL of WFI (water for injection from Abbott Laboratory) and 1N NaOH was added to adjust the pH to 7.4. The solutions were diluted to 15 mL with WFI and sterile filtered with a 0.2 μm filter. The PMPA dose was 10 mg/kg (0.2 mL/kg).
The intravenous formulation for a 1 mg/kg dose was prepared as described above except only 75 mg of PMPA was added to WFI and the final concentration was 5 mg/mL. The dose was 1 mg/kg (0.2 mL/kg). Oral formulations of carbonates were prepared in 20-40% PEG 400/50 mM citric acid and were adjusted to pH 2.2.
Two groups of five adult male beagle dogs were used. The mean body weight at the time of the first does was 9.6±0.4 Kg (range 9.2-10.2). The dogs were fasted 12-18 hours prior to dosing and until 6 hours post-dose. For pentagastrin pretreatment, dogs were given a single intramuscular injection of pentagastrin (Peptavlon 0.25 mg/mL, Ayerst Laboratories, Inc., Philadelphia, Pa.) at a dose of 6 μg/kg, 20 minutes prior to dosing. Water was provided ad lib.
Each formulation was administered as a single dose to five male beagle dogs. Individual vials of each formulation were provided for each animal. The intravenous formulation was administrated via a cephalic vein. The oral suspension was administered by gavage, followed by two 10 mL water washes. At least one week washout period was allowed between administrations.
Blood samples (4.0 mL) were collected by direct jugular access from each animal into heparinized tubes. Animals remained conscious throughout the sample collection period. Blood was processed immediately for plasma by centrifugation at 2000 rpm for 10 minutes. Plasma samples were frozen and maintained at ≦−20° C. until analyzed.
Urine samples were collected over 0-24 and 24-48 hours time periods. Urine samples from 0-24 and 24-48 hours were divided into aliquots and mixed based on the volume collected and analyzed to determine amount of PMPA recovered from urine during 0-48 hours.
PMPA in Plasma and Urine was determined as follows. PMEA (9-(2-phosphono-methoxyethyl)adenine; adefovir) was used as the internal standard for both analyses. The total concentration of PMPA in dog plasma or urine samples was determined by derivatizing PMPA and PMEA with chloroacetaldehyde to yield a highly fluorescent N^1,N^6-ethenoadenine derivative as described (Russell, J. et al. (1991) Determination of 9-[(2-Phosophonylmethoxy)-ethyl]Adenine in Rat Urine by High-Performance Liquid Chromatography with Fluorescence Detection. J. Chromatogr. (Netherlands) 572, 321-326).
Sample Extraction for PMPA in plasma and urine was performed as follows. Plasma (200 μL) and internal standard ([…]) were mixed with 400 μL of acetonitrile containing 0.1% TFA to precipitate protein. Samples were then evaporated to dryness under reduced pressure at room temperature (Savant SpeedVac). Urine samples (20 μL) and internal standard (30 μL of 10 μg/mL PMEA providing a final PMEA concentration of 1.5 μg/mL) were used directly for derivatization without drying.
The samples were derivatized for analysis as follows. Dried plasma samples or urine samples were reconstituted or mixed in 200 μL derivatization cocktail (0.34% chloroacetaldehyde in 100 mM sodium acetate, pH 4.5), vortexed, and centrifuged for 10 minutes at 14,000 rpm in an Eppendorf Centrifuge 5402. Supernatant was then transferred to a clean screw capped tube and incubated at 95° C. for 40 minutes. Derivatized samples were quenched on ice and evaporated to dryness under reduced pressure at room temperature. […]

MT-2 cells = assay: Cytotoxicity in MT-2 cells; assay type: cell-based; conditions: MT-2 cells; read-out: CC50 (concentration to kill 50% of the cells)
Protocol: (§5) PMPA (9-[(R)-2-(phosphonomethoxy)propyl]adenine) and PMPA carbonates were examined to determine their activity against HIV-1. The antiviral activity of the carbonates 5a, 5c-g against HIV-1 (IIIB) was determined in MT-2 cells and the IC50 (50% inhibitory concentration) and CC50 (concentration to kill 50% of the cells) values were measured. […] The increased activity can be attributed to increased cellular uptake of the prodrugs followed by effective intracellular conversion to PMPA, which undergoes subsequent phosphorylation to the antivirally active diphosphate metabolite. […] The partition coefficient values support this hypothesis, with all prodrugs being more lipophilic (logP=0.6-3.2) compared to PMPA (logP=−2.5). [drawing 32]

HIV-1 (IIIB) = assay: microbe, parasite or virus in culture; assay type: cell-based; conditions: MT-2 cells; for IC50: read-out: IC50 (50% inhibitory concentration)
Excerpt: PMPA (9-[(R)-2-(phosphonomethoxy)propyl]adenine) and PMPA carbonates were examined to determine their activity against HIV-1.

[7] = Cytotoxicity in MT-2 cells; assay type: cell-based; conditions: human
Protocol: as §5

IC50 (HIV-1 (IIIB); Human immunodeficiency virus 1, MT2, HIV-1 (IIIB)) [nM] | Compound | Biological t½ (min) (Dog) Liver [1] | Biological t½ (min) (Dog) Plasma [2] | Biological t½ (min) (Dog) Intestine [3] | Log PC pH 7.4 [4] | Biological t½ (min) (Human) Intestine [5] | % of PMPA IV (1 mg/kg) AUC: PMPA [6] [%] | % of PMPA IV (1 mg/kg) AUC: Prodrug [6] [%] | % of PMPA IV (1 mg/kg) AUC: Monoester [6] [%] | % of PMPA IV (1 mg/kg) AUC: other [6] [%] | Urinary Recovery (% as PMPA) ([6]; urine 0-48 hours) [%] | CC50 (MT-2 cells) [µM] | IC50 (HIV-1 (IIIB); HIV-1 (IIIB)) [nM] | increased potency compared to PMPA (HIV-1 (IIIB); HIV-1 (IIIB), relative to PMPA) [fold] | CC50 [7] [µM] | SI, Selectivity Index (CC50/IC50) (HIV-1 (IIIB); HIV-1)
– | CCOC(=O)OC(C)OP(=O)(CO[C@H](C)Cn1cnc2c(N)ncnc21)OC(C)OC(=O)OCC (stereo partly drawn) [Bis-EtCOE PMPA] | <5 | 42.6 min | 62.4 min | – | – | – | – | – | – | – | – | – | – | – | –
– | CCOC(=O)OCOP(=O)(CO[C@H](C)Cn1cnc2c(N)ncnc21)OCOC(=O)OCC [Bis-EtCOM PMPA, Bis-ethyl Oxymethyl Carbonate of PMPA] | <5 | 16.6 min | 23.3 min | 0.6 | (<5) min | 29.3 ± 3.4 | 0 | −2 | 0 | – | – | – | – | – | –
– | CC(C)COC(=O)OCOP(=O)(CO[C@H](C)Cn1cnc2c(N)ncnc21)OCOC(=O)OCC(C)C [Bis-IBu COM PMPA] | <5 | <5 min | 15 min | 2.0 | (<5) min | 24.5 ± 8.82 | – | – | – | – | – | – | – | – | –
– | CCCN(CCC)C(=O)OCOP(=O)(CO[C@H](C)Cn1cnc2c(N)ncnc21)OCOC(=O)N(CCC)CCC [Bis-di-n-proNCOM PMPA] | 76 | Stable (If the observed rate constant for degradation was less than 0.01 min^−1, then t½ was expressed as stable) | Stable (If the observed rate constant for degradation was less than 0.01 min^−1, then t½ was expressed as stable) | – | – | – | – | – | – | – | – | – | – | – | –
– | CC(C)OC(=O)OCOP(=O)(CO[C@H](C)Cn1cnc2c(N)ncnc21)OCOC(=O)OC(C)C [Bis-isopropylCOM PMPA, Bis Isopropyl Oxymethyl Carbonate of PMPA] | <5 | 20.5 min | 52.6 min | 1.25 | (<5) min | 35.8 ± 14.7 | 0 | 3.1 | 0 | – | – | – | – | – | –
– | CCCCOC(=O)OCOP(=O)(CO[C@H](C)Cn1cnc2c(N)ncnc21)OCOC(=O)OCCCC [Bis-nBuCOM PMPA, Bis-n-butyl Oxymethyl Carbonate of PMPA] | <5 | <5 min | <5 min | 2.7 | (<5) min | 17.3 ± 2.57 | – | – | – | – | – | – | – | – | –
– | C[C@H](Cn1cnc2c(N)ncnc21)OCP(=O)(OCOC(=O)OC(C)(C)C)OCOC(=O)OC(C)(C)C [Bis-t-Bu COM PMPA] | 14.9 | 21.2 min | 26.6 min | 1.93 | (<5) min | 36.2 ± 6.76 | – | – | – | 34.9 | 10 | 200 | 2.5 | – | –
– | C[C@H](Cn1cnc2c(N)ncnc21)OCP(=O)(OCOC(=O)NC(C)(C)C)OCOC(=O)NC(C)(C)C [Bis-tBuNCOM PMPA] | 166.5 | 99.5 min | 107.5 min | – | – | 8.86 ± 2.38 | 9.97 | – | – | – | – | – | – | – | –
500 | C[C@H](Cn1cnc2c(N)ncnc21)OCP(=O)(O)O [PMPA, 9-[(R)-2-(phosphonomethoxy)propyl]adenine, reference compound] | – | – | – | – | – | – | – | – | – | – | – | – | – | 250 | 500
